Values of other authors, collected in paper PMC10620911 (ACS Omega, 2023).

Conditions: structure-dependent

## Cc1noc(-c2ccc(-c3ccc(C4(C(=O)O)CC4)cc3)cc2)c1NC(=O)O[C@H](C)c1ccccc1 [BMS-986020]
  hepatobiliary toxicity: hepatobiliary toxicity
